Source: article PMC10940605, “Design, synthesis and in vitro anticancer activity of some new lomefloxacin derivatives” (Scientific Reports, 2024)

Key:
IGROV1 = assay: NCI-60 SRB screen; type: cell-based; conditions: Homo sapiens, IGROV-1; IGROV1, 10^–5 Molar; read-out: Percent growth inhibition
Experimental: (§1) All newly synthesized compounds were selected and screened for anticancer activity against 60 human cancer cell lines representing 9 types of tumors including leukemia, melanoma, lung, colon, CNS, ovarian, renal, prostate, and breast cancers at the National Cancer Institute (NCI), Bethesda, USA. Screening was performed utilizing a single dose (10^−5 M concentration) and cells were incubated for 48 h. The end point was determined using sulforhodamine B (SRB) dye.
(§2) In this study, all the 16 newly synthesized compounds were submitted to the National Cancer Institute (USA) for anticancer evaluation and were selected and evaluated using 60 different human tumor cell lines representing lung, colon, CNS, ovarian, renal, prostate, breast cancers as well as leukemia and melanoma. A single dose (10^–5 Molar) was used for the initial screening for evaluation of anticancer activity. The 60 human cancer cell lines were provided by the national cancer institute biomedical research campus in Frederick, Maryland.
(§3) 60 different human cancer cell lines were utilized to screen the newly synthesized compounds for anticancer activity according to the previously reported standard procedure[24]–[26] as follows: • 96 well microtiter plates were used to inoculate the cells at […] ranging from 4000–5000 cells/well depending on the replication time of individual cell lines. Roswell Park Memorial Institute culture medium (RPMI 1640 medium) containing 2 mM L-glutamine and fetal bovine serum was used to grow the cells at 37 °C, 5% CO2, 95% air and 100% relative humidity for 24 h. • Fixation of cells in two plates of each cell line in situ was done using trichloroacetic acid (TCA). This represented the measurement of cell population at the time of drug addition (Tz). • Dimethyl sulfoxide (DMSO) was used to dissolve the synthesized compounds at 400-fold the desired final maximum concentration and frozen prior to use. This frozen concentrate was melted and diluted to twice the final concentration with complete medium containing 50 µg/mL gentamycin at time of drug addition. • The final compound concentration was obtained by adding 100 µL of the synthesized compounds to the appropriate microtiter wells already containing 100 µL followed by incubation of the plates at 37 °C, 5% CO2, 95% air and 100% relative humidity for 48 h. • Fixation of the cells was achieved by gentle addition of 50 µL of cold 50% (w/v) TCA followed by incubation for 60 min at 4 °C. The supernatant was then discarded and the plates are washed 5 times with tap water and air dried. • Sulphorhodamine B (SRB) solution (100 µL) at 0.4% (w/v) in 1% acetic acid was added to each plate followed by incubation for 10 min at room temperature. The unbound dye was then removed by washing five times with 1% acetic acid and plates were air dried. • Dissolution of the bound stain was done using […] trizma base and the absorbance was read at […] wavelength using an automated plate reader. • The percentage growth inhibition was calculated as follows: Ti-Tz/C-Tz×100forconcentrationswhichTi≥Tz Ti-Tz/Tz×100forconcentrationswhichTi<Tz • Time zero (Tz) • Control growth (C) • Test growth in the presence of drug (Ti)

SF-539 = assay: NCI-60 SRB screen; type: cell-based; conditions: Homo sapiens; SF-539, 10^–5 Molar; read-out: Percent growth inhibition
Experimental: as §1, §2, §3

OVCAR-5 = assay: NCI-60 SRB screen; type: cell-based; conditions: Homo sapiens; OVCAR-5, 10^–5 Molar; read-out: Percent growth inhibition
Experimental: as §1, §2, §3

CAKI-1 = assay: NCI-60 SRB screen; type: cell-based; conditions: Homo sapiens; CAKI-1, 10^–5 Molar; read-out: Percent growth inhibition
Experimental: as §1, §2, §3

MDA-MB-468 = assay: NCI-60 SRB screen; type: cell-based; conditions: Homo sapiens; MDA-MB-468, 10^–5 Molar; read-out: Percent growth inhibition
Experimental: as §1, §2, §3

RXF 393 = assay: NCI-60 SRB screen; type: cell-based; conditions: Homo sapiens, 48 h; RXF 393, 10^–5 Molar; read-out: Percent growth inhibition
Experimental: as §1, §2, §3

SW-620 = assay: NCI-60 SRB screen; type: cell-based; conditions: Homo sapiens; SW-620, 10^–5 Molar; read-out: Percent growth inhibition
Experimental: as §1, §2, §3

NCI-H226 = assay: NCI-60 SRB screen; type: cell-based; conditions: Homo sapiens; NCI-H226, 10^–5 Molar; read-out: Percent growth inhibition
Experimental: as §1, §2, §3

HS 578T = assay: NCI-60 SRB screen; type: cell-based; conditions: Homo sapiens, 10^–5 Molar, read-out: Percent growth inhibition
Experimental: as §1, §2, §3

SNB-19 = assay: NCI-60 SRB screen; type: cell-based; conditions: Homo sapiens; SNB-19, 10^–5 Molar; read-out: Percent growth inhibition
Experimental: as §1, §2, §3

SF-268 = assay: NCI-60 SRB screen; type: cell-based; conditions: Homo sapiens; SF-268, 10^–5 Molar; read-out: Percent growth inhibition
Experimental: as §1, §2, §3

SN12C = assay: NCI-60 SRB screen; type: cell-based; conditions: Homo sapiens, 10^–5 Molar, read-out: Percent growth inhibition
Experimental: as §1, §2, §3

UO-31 = assay: NCI-60 SRB screen; type: cell-based; conditions: Homo sapiens; UO-31, 10^–5 Molar; read-out: Percent growth inhibition
Experimental: as §1, §2, §3

melanoma SK-MEL-5 = assay: NCI-60 SRB screen; type: cell-based; conditions: Homo sapiens; SK-MEL-5, 10^–5 Molar; read-out: Percent growth inhibition
Experimental: as §1, §2, §3

UACC-62 = assay: NCI-60 SRB screen; type: cell-based; conditions: Homo sapiens; UACC-62, 10^–5 Molar; read-out: Percent growth inhibition
Experimental: as §1, §2, §3

SNB-75 = assay: NCI-60 SRB screen; type: cell-based; conditions: Homo sapiens; SNB-75, 10^–5 Molar; read-out: Percent growth inhibition
Experimental: as §1, §2, §3

LOX IMVI = assay: NCI-60 SRB screen; type: cell-based; conditions: Homo sapiens, 10^–5 Molar, read-out: Percent growth inhibition
Experimental: as §1, §2, §3

T-47D = assay: NCI-60 SRB screen; type: cell-based; conditions: Homo sapiens, T47D, 10^–5 Molar, read-out: Percent growth inhibition
Experimental: as §1, §2, §3

PC-3 = assay: NCI-60 SRB screen; type: cell-based; conditions: Homo sapiens; PC-3, 10^–5 Molar; read-out: Percent growth inhibition
Experimental: as §1, §2, §3

MCF7 = assay: NCI-60 SRB screen; type: cell-based; conditions: Homo sapiens; MCF7, 10^–5 Molar; read-out: Percent growth inhibition
Experimental: as §1, §2, §3

[1] = tested on: 60 human cancer cell lines; assay: NCI-60 SRB screen, whole panel; type: cell-based; conditions: Homo sapiens, 48 h; One Dose Mean Graph, Conc 1.00E-5 Molar; read-out: Mean Growth Percent
786-0 = assay: NCI-60 SRB screen; type: cell-based; conditions: Homo sapiens; 786-0, 10^–5 Molar; read-out: Percent growth inhibition
Experimental: as §1, §2, §3

NCI-H322M = assay: NCI-60 SRB screen; type: cell-based; conditions: Homo sapiens, 10^–5 Molar, read-out: Percent growth inhibition
Experimental: as §1, §2, §3

MDA-MB-231/ATCC = assay: NCI-60 SRB screen; type: cell-based; conditions: Homo sapiens, 10^–5 Molar, read-out: Percent growth inhibition
Experimental: as §1, §2, §3

leukemia SR = assay: NCI-60 SRB screen; type: cell-based; conditions: Homo sapiens; SR, 10^–5 Molar; read-out: Percent growth inhibition
Experimental: as §1, §2, §3

In the case of `CCn1cc(C(=O)O)c(=O)c2cc(F)c(N3CCN(CC(=O)Nc4ccc(S(=O)(=O)Nc5nccc(C)n5)cc4)C(C)C3)c(F)c21` (stereo not shown) [Compound 5f, 1-Ethyl-6,8-difluoro-7-(3-methyl-4-(2-((4-(N-(4-methylpyrimidin-2-yl)sulfamoyl)phenyl)amino)-2-oxoethyl)piperazin-1-yl)-4-oxo-1,4-dihydroquinoline-3-carboxylic acid], the inhibition at 10 µM (IGROV1) is reported as 0.3%, the inhibition at 10 µM (SF-539) is reported as 0.79% and the inhibition at 10 µM (OVCAR-5) is reported as 1.48%. It also gave an inhibition at 10 µM (CAKI-1) of 11.4%, an inhibition at 10 µM (MDA-MB-468) of 3.63% and an inhibition at 10 µM (RXF 393) of 0.98%. For the same compound, the inhibition at 10 µM (SW-620) was 3.4%, the inhibition at 10 µM (NCI-H226) was 2.92% and the inhibition at 10 µM (HS 578T) was 0.4%. The inhibition at 10 µM (SNB-19) was 1.26%, the inhibition at 10 µM (SF-268) was 1.74% and the inhibition at 10 µM (SN12C) was 1.96%. For the same compound, the inhibition at 10 µM (UO-31) was 16.7%, the inhibition at 10 µM (melanoma SK-MEL-5) was 193% and the inhibition at 10 µM (UACC-62) was 5.79%. It also gave an inhibition at 10 µM (SNB-75) of 4.26%, an inhibition at 10 µM (LOX IMVI) of 4.41% and an inhibition at 10 µM (T-47D) of 1.12%. It also gave an inhibition at 10 µM (PC-3) of 2.04%, an inhibition at 10 µM (MCF7) of 3.33% and an activity at 10 µM [1] of 102%. The melting point was 247 to 249 °C.

`CCn1cc(C(=O)O)c(=O)c2cc(F)c(N3CCN(C=O)C(C)C3)c(F)c21` (stereo not shown) [Compound 6, 1-Ethyl-6,8-difluoro-7-(4-formyl-3-methylpiperazin-1-yl)-4-oxo-1,4-dihydroquinoline-3-carboxylic acid] gave an inhibition at 10 µM (786-0) of 1.77%, an inhibition at 10 µM (CAKI-1) of 4.66% and an inhibition at 10 µM (MDA-MB-468) of 2.93%. For the same compound, the inhibition at 10 µM (NCI-H322M) was 2.38%, the inhibition at 10 µM (SW-620) was 3.48% and the inhibition at 10 µM (NCI-H226) was 4.91%. The inhibition at 10 µM (SF-268) was 2.98%, the inhibition at 10 µM (MDA-MB-231/ATCC) was 0.72% and the inhibition at 10 µM (UO-31) was 12.9%. The inhibition at 10 µM (UACC-62) was 7.29%, the inhibition at 10 µM (SNB-75) was 5.57% and the inhibition at 10 µM (leukemia SR) was 27.8%. For the same compound, the inhibition at 10 µM (LOX IMVI) was 6.49%, the activity at 10 µM [1] was 103% and the melting point was 289 to 291 °C.
